In patent US20230346808A1, “CANNABINOID FORMULATIONS AND METHODS OF USE” (PreveCeutical Medical Inc., priority 2020, published 2023):
Where “and” joins values, the source holds several entries; their conditions need not be identical. Equal values may be shown once.

What was measured:
[1] = test system: explanted nasal mucosal tissue; assay: Ex vivo deposition into nasal mucosa, vertical Franz-diffusion apparatus; assay type: in vitro ADME, human; details: for Deposition of key cannabinoids in µg/g of nasal tissue, Decarboxylated (average of batches D19 & D23): 300 µL decarboxylated sol-gel; for Deposition of key cannabinoids in µg/g of nasal tissue, Decarboxylated (average of batches D19 & D23) / Deposition of key cannabinoids in µg/g of nasal tissue, Native (average of batches N22 & 23): 8 hours post-application, 34° C.; for Deposition of key cannabinoids in µg/g of nasal tissue, Native (average of batches N22 & 23): 300 µL native sol-gel
Experimental: Ex vivo permeation studies were carried out using vertical Franz-diffusion apparatus equipped with temperature-controlled jackets set at 34° C. ± 1° C. Nasal mucosa was taken from middle-turbinate of patients undertaking surgery at Greenslopes Private Hospital. Mucosal tissue was cleaned of blood and bone, then immersed in phosphate-buffered saline (PBS; pH 7.4) at room temperature. The prepared nasal membrane was then sandwiched between donor and receptor cells with the dorsal side of the tissue facing the donor compartment and the ventral side facing the receiver compartment. The receptor cells were filled with 12 mL of PBS and then 300 µL of native or decarboxylated sol-gel samples placed in the donor compartment, ensuring that formulations spread over the entire tissue. To prevent evaporation of the samples, donor cells were covered with Parafilm®. Samples from the receptor cell were taken and volume replaced with PBS at 0, 1, 2, 4, 6 and 8-hours following sol-gel application. Collected tissue samples were then rinsed with MilliQ water after 8 hours, blotted dry with filter paper, wrapped with aluminium foil to protect from light and stored at -80° C. until required for further analysis.
On the day of analysis, the tissue samples were allowed to thaw and were blotted dry using filter paper, cut into small pieces, frozen with liquid nitrogen and ground with a mortar and pestle. Cannabis was extracted from the powdered tissue with ethanol (1 mL) and gently agitated for 12 hours at room temperature. Samples were then transferred to Eppendorf tubes and centrifuged at 10000 rpm for 10 minutes. The supernatant was collected and 100 µL of acetonitrile added to each tube then supernatant collected and again 100 µL was added and stored at -20° C. overnight. The following day each sample was allowed to thaw and centrifuged at 10000 rpm for 10 minutes with supernatant collected and prepared for quantitative analysis using the HPLC method described above in Example 5. Samples of Cannabis sol-gels from native (N22 and N23) and decarboxylated (D19 and D23) extracts were used in this study.
The tissue deposition of cannabinoids was measured per gram of nasal mucosa, with studies based on tissue availability from patients undergoing sinus surgery, and key cannabinoids detected presented in Table 8. The data shown is an average of the 2 native or 2 decarboxylated batches. The amount of sol-gel administered (300 µL) accounts for 3000 µg of cannabinoid content which is a surplus amount (based on micelles, this approximately correlates to the following: for native sol-gels maximum of […] CBDA, 1200 µg THCA; for decarboxylated sol-gels maximum of 960 µg CBDA, 45 µg THCA).

[2] = test system: human nasal mucosa; details: tissue from end of the 5 day study
Experimental: Untreated tissue samples and post-treated tissue samples from the end of the study were preserved from each well for histological evaluation. Each sample was fixed using 4% formaldehyde and stored at 4° C. overnight. On the following day, tissues were dipped in 20% sucrose overnight and embedded in OCT, frozen at -20° C. and cryo-sectioned into slices. Staining was performed with hematoxylin and eosin for 1 minute and stained samples dehydrated in ethanol, defatted in xylene and cover-slipped for histological examination.
Tissues were examined for morphological changes.

[3] = test system: human nasal mucosa; details: 2 µL applied, media harvested daily for five days, n = 3
Experimental: Lactate dehydrogenase (LDH) is an oxidoreductase enzyme found in living cells that is released into the cytoplasm upon cell lysis that is under stressor conditions. LDH is detected via a colourimetric cytotoxicity assay that provides a measure of membrane integrity, with high titres of LDH being an indicator of acute cellular damage/toxicity (Lim et al, International Forum of Allergy & Rhinology, 2012, 2(1): p 63-68). […] Acute toxicity was assessed in freshly explanted human nasal tissue.
Human specimens were dissected, connective tissue, debris or blood were removed utilising a 15 blade scalpel and divided into 2-3 mm x 2-3 mm x 1-2 mm sections. […]
LDH was used as the biomarker and analysed using the CytoTox 96® Non-Radioactive cytotoxicity assay kit following manufacturer instructions (Promega, Madison WI). […] After the end of the study, the absorbance of each sample was obtained at 490 nm using FLUOstar Omega Spectrophotometer (BMG Labtech, Offenburg, Germany). The extracellular LDH level was calculated as changes in the LDH levels of tissues treated with a formulation versus tissues treated with PBS. Statistical differences were analysed by one-way ANOVA followed by Dunnet’s multiple comparison test using GraphPad Prism software (v 7.03).

SMILES | Deposition of key cannabinoids in µg/g of nasal tissue, Decarboxylated (average of batches D19 & D23) [1] | Deposition of key cannabinoids in µg/g of nasal tissue, Native (average of batches N22 & 23) [1] | Higher tissue level from decarboxylated versus native sol-gels ([1]; decarboxylated versus native extract infused sol-gels) | Morphological changes of epithelial and sub epithelial layers of nasal mucosa [2] | Extracellular LDH levels versus PBS negative control [3]
C=C(C)[C@@H]1CCC(C)=C[C@H]1c1c(O)cc(CCCCC)cc1O [CBD, cannabidiol] | 3.56 µg/g and 3.56 ± 1.67 µg/g | 3.47 µg/g and 3.47 ± 1.53 µg/g |  |  | 
C=C(C)[C@@H]1CCC(C)=C[C@H]1c1c(O)cc(CCCCC)c(C(=O)O)c1O [CBDA, Cannabidiolic acid] | 10.9 µg/g and 10.9 ± 1.81 µg/g | 3.14 µg/g and 3.14 ± 2.98 µg/g | ca. 3 fold |  | 
CCCCCc1cc(O)c2c(c1)OC(C)(C)[C@@H]1CCC(C)=C[C@@H]21 [THC, delta-9-tetrahydrocannabinol] | 4.19 µg/g and 4.19 ± 2.20 µg/g | 3.54 µg/g and 3.54 ± 1.74 µg/g |  |  | 
CCCCCc1cc2c(c(O)c1C(=O)O)C1C=C(C)CCC1C(C)(C)O2 (centres unmarked) [THCA, Δ^9-Tetrahydrocannabinolic acid] | 11.3 µg/g and 11.3 ± 10.2 µg/g | 5.73 µg/g and 5.73 ± 0.51 µg/g |  |  | 
O=S(=O)([O-])[O-].[Zn+2] [ZnSO4, Zinc sulfate] |  |  |  | gross cell and tissue structural damage | significant elevation in LDH levels at day 2
